The values that follow come from publication PMC6285983, “Novel broad spectrum virucidal molecules against enveloped viruses” (PLoS ONE, 2018).

The term EC50 denotes the concentration at which the effect is half-maximal. Broadly, the EC90 is the point of the concentration-response curve where the effect stands at 90%. For orientation: melting point means the temperature, or range, at which the solid turns liquid.

Data set [1] concerns HSV-2. Kind of data set: HSV-2 plaquing efficiency assay, compound preincubated with virus 1 h at 37°C. The data set is classed as cell-based. To be noted: Human alphaherpesvirus 2, HSV-2, Vero cells, 1 h pre-incubation virus/compound; for EC50: plaques at 24 h, read-out: EC50 (95% C.I.); for EC90: read-out: EC90 (95% C.I.).
Data set [2] can be described thus: Cell viability MTS assay on Vero cells. To be noted: African green monkey, CC50, Vero cells, MTS. On the technique in general: Formazan colour is commonly taken as a measure of viable cells.
Data set [3] can be described thus: in vitro. To be noted: African green monkey.
The nature of data set [4]: In vitro lipoperoxidation test (TBA assay, MDA). To be noted: 0.05% w/w added to liposomes, exposure to compound 9d.
Data set [5] relates to HSV-2 acyclovir resistant strain. Nature of the data set: microbe, parasite or virus in culture. The data set is classed as cell-based. To be noted: Human alphaherpesvirus 2.

On to `O=C(O)c1ccc(-c2ccc(/C=C3\SC(=S)N(CCc4ccc(Br)cc4)C3=O)o2)cc1O` [Compound 9b, (Z)-4-(5-((3-(4-bromophenethyl)-4-oxo-2-thio-oxothiazolidin-5-ylidene)methyl)furan-2-yl)-2-hydroxybenzoic acid], for which the melting point was 275 °C (dec.). In addition, in data set [1], the EC50 turned out to be 0.12 µM and the EC90 amounted to 0.404 µM. The CC50 in data set [2] was found to be 13.5 µM.

Take `O=C1NC(=S)N(Cc2ccccc2)C(=O)/C1=C\c1ccc(-c2ccc(C(=O)O)c(O)c2)o1` [Compound 15a, (Z)-4-(5-((1-benzyl-4,6-dioxo-2-thioxotetrahydropyrimidin-5(2H)-ylidene)methyl)furan-2-yl)-2-hydroxybenzoic acid]: in data set [1], the EC50 stood at 1.03 µM and the EC90 came out at 57.1 µM. In data set [3], the CC50 was over 300 µM.

In the case of (±)-α-tocopherol [reference compound], the “reduction of the peroxidation of linoleic acid” value in data set [4] stood at 50.5%.

As to `O=C(O)c1ccc(-c2ccc(/C=C3\SC(=S)N(CCc4c[nH]c5ccccc45)C3=O)o2)cc1O` [Compound 9a, (Z)-4-(5-((3-(2-(1H-Indol-3-yl)ethyl)-4-oxo-2-thioxothiazolidin-5-ylidene)methyl)furan-2-yl)-2-hydroxybenzoic acid], the melting point is 254 °C (dec.). For the same molecule, in data set [1], the half-maximal effective concentration (EC50) came to 0.63 µM and the EC90 stood at 2.05 µM. Besides, the CC50 in data set [2] stood at 291 µM.

In the case of `O=C1NC(=S)N(CCc2ccccc2)C(=O)/C1=C\c1ccc(-c2ccc(C(=O)O)c(O)c2)o1` [Compound 15b, (Z)-4-(5-((4,6-dioxo-1-phenethyl-2-thioxotetrahydropyrimidin-5(2H)-ylidene)methyl)furan-2-yl)-2-hydroxybenzoic acid], in data set [1], the EC50 was 0.0484 µM and the concentration for an effect of 90% (EC90) was 10.9 µM. The CC50 in data set [3] was over 300 µM.

Consider `O=C1/C(=C/c2ccc(-c3cc(C(F)(F)F)ccc3Cl)o2)SC(=S)N1Cc1ccc(F)cc1` [Compound 9e, (Z)-5-((5-(2-chloro-5-(trifluoromethyl)phenyl)furan-2-yl)methylene)-3-(4-fluorobenzyl)-2-thioxothiazolidin-4-one], for which, in data set [1], the EC50 was 0.767 µM and the EC90 came out at 5.74 µM. Also, the CC50 in data set [2] was over 300 µM.

`Nc1nc2c(ncn2COCCO)c(=O)[nH]1` [acyclovir, reference compound] came in with a half-maximal effective concentration (EC50) in data set [5] of 319 µM.

Consider `COc1ccc(CCN2C(=O)/C(=C/c3ccc(-c4ccc(C(=O)O)c(O)c4)o3)SC2=S)cc1` [Compound 9c, (Z)-2-hydroxy-4-(5-((3-(4-methoxyphenethyl)-4-oxo-2-thioxothiazolidin-5-ylidene)methyl)furan-2-yl)benzoic acid], for which the melting point is 265 °C (dec.). Further, in data set [1], the EC50 turned out to be 0.06 µM and the 90% effect concentration (EC90) was 0.145 µM. The CC50 in data set [2] worked out at 9.87 µM.
